Experimental data taken from patent US11857550B2, “Benzathine analogs” (University of Pittsburgh—Of the Commonwealth System of …, priority 2012, dated 2024).

Experiments:
human PBMC cells = assay: LPS-induced IL1β and TNFα cytokine release from PBMC cells (ELISA); assay type: cell-based; details: LPS-exposed human PBMC
Protocol: (§1) FIGS. 20A-20J is a table depicting benzathine compounds, and assay results. PBMC cells (0.6 ml at 1.5*10^6/ml) were treated with 2 ug/ml LPS for 16 hrs along with each compound at different concentrations. IL1β and TNFα cytokine release were monitored by ELISA to calculate the IC50. U937 monocyte (0.6 ml at 1.5*10^6/ml) were treated with each compound at different concentrations for 16 h. Cells were then stained with Trypan blue to differentiate dead cells, and calculate the LD50. Therapeutic index (TI)=LD50/IC50. Compounds marked in red are high value targets (low IC50, high LD50) and require further testing in vivo.
(§2) Briefly, compounds were added to human PBMC cells at different concentrations that were exposed to […] and cytokine secretion was monitored by ELISA to determine the IC50. Compounds were also added to U937 monocytes at different concentrations, and cells were stained with trypan blue to determine the LD50. […] Several functional studies were undertaken to assess anti-inflammatory effects focusing on BC-1215.

C57BL6 mice [1] = assay type: in vivo; details: mouse, in vivo
FBXO3 = FBXO3 (Homo sapiens, UniProt Q9UK99); assay: In vitro ubiquitination assay, SCFFBXO3 complex with V5-FBXL2 substrate; assay type: biochemical; details: increased concentration of compound
Description: FIGS. 10A-10E. BC-1215 inhibits FBXO3 and decreases TRAF protein levels. FIG. 10A. […] FIG. 10B. In vitro ubiquitination assays. […] FIG. 10C. […] Cells were collected and assayed for immunoblotting. FIG. 10D. […] FIG. 10E.
BC-1215 inhibits FBXO3 and decreases TRAF protein levels. […] Cells were collected and assayed for protein immunoblotting.

C57BL6 mice [2] = assay: Carrageenan induced paw edema; assay type: in vivo; details: 200 ug IP daily, 48 h
Protocol: FIGS. 16A-16C. BC-1215 reduces Carrageenan induced paw edema. FIGS. 16A-16C. C57BL6 mice were deeply anesthetized with ketamine (80-100 mg/kg i.p.) and xylazine (10 mg/kg i.p.). Mice were received a subplantar administration of 25 ul of saline or 25 ul of carrageenan (1% in saline), followed by an IP injection of […] of BC-1215 daily for two days. Mice were then euthanized; the thickness and volume of paw was measured (FIG. 16B-16C). (n=4 mice/group, *p<0.05 versus vehicle)
BC-1215 ameliorates Carrageenan induced paw edema. BC-1215 also was tested in a mouse paw edema model to confirm its anti-inflammatory activity. Mice received subplantar administration of 25 ul of saline or 25 ul of carrageenan (1% in saline) (Posadas et al., Br J Pharmacol, 2004. 142(2):p. 331-8), followed by an IP injection of 200 ug of BC-1215 daily. 48 h later, mice were euthanized; the thickness and volume of the paw was measured. […] Thus, the FBXO3 inhibitor BC-1215 suppresses inflammation in a nonpulmonary model of edema involving the extremities.

C57BL6 mice [3] = assay: LPS induced (endotoxin) septic shock model; assay type: in vivo; details: IP, 10 min before 100 ug LPS IP; blood at 90 min
Protocol: FIG. 11. BC-1215 inhibits cytokine release from in an endotoxin septic shock model. BC-1215 was solubilized in water using acetic acid in a 1:2 molar ratio; the stock solution of BC-1215 was 5 mg/ml. C57BL6 mice were deeply anesthetized with ketamine (80-100 mg/kg intraperitoneally (i.p.) and xylazine (10 mg/kg i.p.). 500 ug, 100 ug, 20 ug, 4 ug and 0.8 ug of BC-1215 was administered to mice through an intraperitoneal (IP) injection. 10 min later, mice were given 100 ug of LPS (E. coli) through an IP injection. 90 min later, mice were euthanized; blood was collected and tested for IL1-β, IL-6 and TNFα assays. (n=3/mice group at each dose)
Compound BC-1215 was first solubilized in water using acetic acid in a 1:2 molar ratio; the stock solution of BC-1215 was 5 mg/ml. 500 ug, 100 ug, 20 ug, 4 ug and 0.8 ug of BC-1215 was administered to mice though an intraperitoneal (IP) injection. 10 min later, mice were given 100 ug of LPS (E. coli) through an IP injection. 90 min later, mice were euthanized; blood was collected and tested for IL1-β, IL-6 and TNFα cytokine assays.

C57BL6 mice [4] = assay: TPA induced ear edema; assay type: in vivo; details: topical, 8, 40, 200 ug/ear, 18 h after TPA
Protocol: FIGS. 15A-15C. […] FIG. 15A-15C. C57BL6 mice were deeply anesthetized with ketamine (80-100 mg/kg i.p.) and xylazine (10 mg/kg i.p.). 20 μl of ethanol solution of BC-1215 was applied to ears at 8, 40, 200 ug/ear 30 min after TPA administration (2 μg/ear). Comparisons included equal volumes of ethanol (vehicle control). 18 h after TPA administration, mice were euthanized; the thickness of the ear was measured using a micrometer (FIG. 15B). Ear punch biopsies were also taken immediately, weighed and graphed (FIG. 15C).
FIGS. 23A-23D. […] Different dose of BC-1261 was applied to ears of mice at various doses 30 min after TPA administration (2 μg/ear). A. Gross comparisons were made with equal volumes of ethanol as a vehicle control (CON). 18 h after TPA administration, mice were euthanized and the thickness of the ear was measured using a micrometer (B). Autopsy sample were also taken to measure MPO activity (C) and calculate ear edema (D). The data represent n=6 mice/group, *P<0.05 versus TPA.
Topical application of BC-1215 as an anti-inflammatory agent was tested in a model of 12-O-tetradecanoylphorbol-13-acetate (TPA) induced ear edema (Bralley et. al., J Inflamm (LOnd), 2008. 5:p.1). Briefly, 20 μl of an ethanol solution of BC-1215 was applied to ears of mice at 8, 40, and 200 ug/ear for 30 min after TPA administration (2 μg/ear). Comparisons included equal volumes of ethanol (vehicle control). 18 h after TPA administration, mice were euthanized; the thickness of the ear was measured using a micrometer. Ear punch biopsies were also taken immediately, weighed, and graphed.

U937 monocyte = U937 monocyte Trypan blue cell death (LD50); assay type: cell-based, human; details: U937 monocytes, 16 h
Protocol: as §1, §2

Chain of FBXO3 (Q9UK99 whole entry): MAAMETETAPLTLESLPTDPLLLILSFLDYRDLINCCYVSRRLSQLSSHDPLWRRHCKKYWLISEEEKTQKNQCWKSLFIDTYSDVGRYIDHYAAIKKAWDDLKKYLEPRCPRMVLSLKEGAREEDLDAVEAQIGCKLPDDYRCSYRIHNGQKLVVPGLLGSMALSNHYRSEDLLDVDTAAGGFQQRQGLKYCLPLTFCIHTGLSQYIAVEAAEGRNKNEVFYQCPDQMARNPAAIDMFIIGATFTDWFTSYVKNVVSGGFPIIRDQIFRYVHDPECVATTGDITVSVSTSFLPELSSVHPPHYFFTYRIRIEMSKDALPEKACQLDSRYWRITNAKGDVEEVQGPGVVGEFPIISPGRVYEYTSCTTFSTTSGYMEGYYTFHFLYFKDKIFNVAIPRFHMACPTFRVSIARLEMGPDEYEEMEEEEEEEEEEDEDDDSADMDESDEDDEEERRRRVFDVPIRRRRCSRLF
Chain of FBXO3 (P63208 whole entry partner): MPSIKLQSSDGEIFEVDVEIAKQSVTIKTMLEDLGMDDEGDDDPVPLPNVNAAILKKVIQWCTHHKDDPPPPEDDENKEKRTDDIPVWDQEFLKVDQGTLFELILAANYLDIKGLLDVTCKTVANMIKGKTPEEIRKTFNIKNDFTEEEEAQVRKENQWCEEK
Chain of FBXO3 (Q13616 whole entry partner): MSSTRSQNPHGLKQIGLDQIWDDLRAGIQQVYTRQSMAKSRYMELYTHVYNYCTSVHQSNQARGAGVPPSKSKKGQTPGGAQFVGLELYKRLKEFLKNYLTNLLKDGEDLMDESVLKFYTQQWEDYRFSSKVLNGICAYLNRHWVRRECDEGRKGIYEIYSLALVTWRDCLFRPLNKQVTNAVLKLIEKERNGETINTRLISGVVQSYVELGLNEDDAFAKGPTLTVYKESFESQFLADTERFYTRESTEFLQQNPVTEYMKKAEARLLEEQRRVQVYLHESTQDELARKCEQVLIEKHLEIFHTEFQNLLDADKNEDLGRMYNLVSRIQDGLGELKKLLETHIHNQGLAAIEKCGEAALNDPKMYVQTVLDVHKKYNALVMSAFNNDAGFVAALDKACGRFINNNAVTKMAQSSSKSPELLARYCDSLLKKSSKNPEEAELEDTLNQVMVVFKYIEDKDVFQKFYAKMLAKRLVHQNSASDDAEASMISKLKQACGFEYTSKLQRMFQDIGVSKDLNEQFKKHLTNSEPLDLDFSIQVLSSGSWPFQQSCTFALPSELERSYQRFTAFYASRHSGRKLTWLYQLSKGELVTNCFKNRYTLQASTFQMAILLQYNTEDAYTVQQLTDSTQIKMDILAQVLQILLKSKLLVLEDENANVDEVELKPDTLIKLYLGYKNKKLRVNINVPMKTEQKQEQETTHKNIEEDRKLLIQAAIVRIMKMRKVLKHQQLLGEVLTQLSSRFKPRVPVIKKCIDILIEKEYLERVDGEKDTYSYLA
Chain of FBXO3 (P62877 whole entry partner): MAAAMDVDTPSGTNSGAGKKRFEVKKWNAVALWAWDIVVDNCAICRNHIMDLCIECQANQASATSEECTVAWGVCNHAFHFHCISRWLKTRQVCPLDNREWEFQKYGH

## c1ccc(-c2ccc(CNCCNCc3ccc(-c4ccccn4)cc3)cc2)nc1 [BC-1215]
Human PBMC cells
  IC50 (cytokine secretion): high
C57BL6 mice [1]
  cell infiltrates: remarkably decreased
  lavage cell counts: remarkably decreased
  lavage protein concentration: remarkably decreased
  lung compliance: increased compliance
  lung edema: remarkably decreased
  lung elastance: reduced elastance
  survival: significantly increased their survival
FBXO3
  FBXO3 catalyzed FBXL2 polyubiquitination: able to inhibit FBXO3 catalyzed FBXL2 polyubiquitination
C57BL6 mice [2]
  paw edema: significantly reduced
  paw thickness: significantly reduced
C57BL6 mice [3]
  IC50 IL-1β: 1 mg/kg
  IC50 IL-6: 2.5 mg/kg
  IC50 TNFα: 1.2 mg/kg
C57BL6 mice [4]
  ear edema: significantly resolve edema
  ear thickness: significantly reduced
  ear weight (punch biopsies): significantly reduced
U937 monocyte
  LD50: low
